# Results from patent US20180243421A1, “IMMUNOSTIMULATING AGENT” (AJINOMOTO CO., INC., priority 2015, published 2018).
# How the values were obtained:
# [1] = tested on: anti-OVA-specific IgG1 subclass antibody; experiment: Adjuvant activity after primary immunization: anti-OVA-specific IgG1 subclass antibody in serum (Examples 13-18); type: in vivo, BALB/c mice; conditions: OVA 5 μg + 0.256 μmol in 5% αCD saline s.c., serum after 12 days; for anti-OVA-specific IgG1 subclass antibody production after primary immunization: Example 13
# Method: 8-Week-old female BALB/c mice were divided into groups (N=6), and each group was primarily immunized by dorsal-subcutaneous administration of (1) ovalbumin (OVA) (5 μg) dissolved in saline as an antigen (OVA single administration group), (2) OVA (5 μg) and SZ83 (0.256 μmol) dissolved or dispersed in 5% αCD-added saline (SZ83 administration group), (3) OVA (5 μg) and SZ84 (0.256 μmol) dissolved or dispersed in 5% αCD-added saline (SZ84 administration group), (4) OVA (5 μg) and SZ86 (0.256 μmol) dissolved or dispersed in 5% αCD-added saline (SZ86 administration group), (5) OVA (5 μg) and SZ89 (0.256 μmol) dissolved or dispersed in 5% αCD-added saline (SZ89 administration group), (6) OVA (5 μg) and SZ90 (0.256 μmol) dissolved or dispersed in 5% αCD-added saline (SZ90 administration group), each per mouse. After 12 days, blood samples were collected under anesthesia, and the obtained serum samples were subjected to the measurement of an anti-OVA-specific IgG1 subclass antibody.
# Measurement Method of Concentration of anti-OVA-specific IgG1 Subclass Antibody and anti-OVA-specific IgG2a Subclass Antibody
# To a 96 well plate was added 5 μg/ml OVA at 100 μl/well, and the mixture was incubated at 4° C. overnight. After incubation, the mixture was washed three times with 200 μl of PBS-T (PBS+0.05% (v/v) Tween 20) per well, and blocked with 100 μl of 5% FCS/PBS solution per well at room temperature for 1 to for 2 hr. Thereafter, the mixture was washed three times with PBS-T (200 μl/well), a diluted serum sample (100 μl/well) or the same amount of 5% FCS/PBS solution as a control was added, to and the mixture was incubated at 37° C. for 1 hr. To calculate concentration of the antibody, the standard of an anti-OVA-specific IgG1 subclass antibody diluted with 2% FCS/PBS solution was added at 100 ng/ml, 50 ng/ml, 25 ng/ml, 12.5 ng/ml, 6.25 ng/ml, 3.125 ng/ml, 1.56 ng/ml, 0.781 ng/ml, 0.391 ng/ml, 0.195 ng/ml, 0.098 ng/ml, 0 ng/ml, per 1 well. When an anti-OVA-specific IgG2a subclass antibody was measured, the standard of an anti-OVA-specific IgG2a subclass antibody was added at 50 ng/ml, 25 ng/ml, 12,5 ng/ml, 6.25 ng/ml, 3.125 ng/ml, 1.56 ng/ml, 0.781 ng/ml, 0.391 ng/ml, 0.195 ng/ml, 0.098 ng/ml, 0.049 ng/ml, 0 ng/ml, per 1 well. […] Thereafter, the mixture was washed five times with PBS-T (200 μl/well), a diluted anti-biotin-HRP antibody was added (100 μl/well), and the mixture was incubated at 37° C. for another 30 min. Thereafter, the mixture was washed five times with PBS-T (200 μl/well), TMB substrate solution was added (100 μl/well), and the mixture was incubated at room temperature for 10- for 15 min. Thereafter, a reaction quenching liquid (2N sulfuric acid solution) was added (50 μl/well) to discontinue a color developing reaction, and the absorbance (OD Value=450 nm) was measured by a microplate reader. A standard curve was drawn from the measured OD values, and the concentration was calculated.
# 8-Week-old female BALB/c mice were divided into groups (N=6), and each group was primarily immunized by dorsal-subcutaneous administration of (1) ovalbumin (OVA) (5 μg) dissolved in saline as an antigen (OVA single administration group), (2) OVA (5 μg) and SZ92 (0.256 μmol) dissolved or dispersed in 5% αCD-added saline (SZ92 administration group), (3) OVA (5 μg) and SZ94 (0.256 μmol) dissolved or dispersed in 5% αCD-added saline (SZ94 administration group), (4) OVA (5 μg) and SZ95 (0.256 μmol) dissolved or dispersed in 5% αCD-added saline (SZ95 administration group), (5) OVA (5 μg) and SZ96 (0.256 μmol) dissolved or dispersed in 5% αCD-added saline (SZ96 administration group), each per mouse. After 12 days, blood samples were collected under anesthesia, and the obtained serum samples were subjected to the measurement of anti-OVA-specific IgG1 subclass antibody.
# [2] = tested on: anti-influenza IgA antibody; experiment: Transnasal influenza vaccine adjuvant activity: anti-influenza IgA antibody in nasal cavity wash; type: in vivo, BALB/c mice; conditions: Example 4, influenza HA vaccine 20 μl, SZ62 1 μg, Poly(I:C) 5 μg, two weeks from secondary immunization
compound,measurement,setting,value
"CCCCCCCCCCCCCCCC(=O)N[C@@H](CCC(=O)O)C(=O)OCCCCCC [SZ134, N-hexadecanoyl-L-glutamic acid hexyl ester]",anti-OVA-specific IgG1 subclass antibody production after primary immunization as compared to the OVA single administration group,[1]; Example 18,tended to increase
"CCCCCCCCCCCCCCCC(=O)N1CCC[C@H]1C(=O)OC [SZ95, N-hexadecanoyl-L-proline methyl ester]",anti-OVA-specific IgG1 subclass antibody production after primary immunization as compared to the OVA single administration group,[1]; Example 14,tended to increase
"CCCCCCCCCCCCCCCCCCCCCC(=O)N[C@@H](CCCNC(=N)N)C(N)=O.Cl [SZ128, N^2-docosanoyl-L-arginine amide hydrochloride salt]",anti-OVA-specific IgG1 subclass antibody production after primary immunization as compared to the OVA single administration group,[1]; Example 18,significantly increased
"polyinosinic polycytidylic acid [Poly(I:C), reference compound]",anti-influenza IgA antibody production in nasal cavity wash as compared to the influenza vaccine single administration group,[2],a significant increase was not found
"CCCCCCCCCCCCCCCC(=O)N[C@@H](Cc1c[nH]cn1)C(=O)OC [SZ94, N-hexadecanoyl-L-histidine methyl ester]",anti-OVA-specific IgG1 subclass antibody production after primary immunization as compared to the OVA single administration group,[1]; Example 14,tended to increase
"CCCCCC(=O)N[C@@H](CC(C)C)C(=O)OC [SZ84, N-hexanoyl-L-leucine methyl ester]",anti-OVA-specific IgG1 subclass antibody production after primary immunization,[1],show a tendency to increase
"CCCCCCCCCCCCCCCCCCCCCC(=O)N[C@@H](CC(C)C)C(=O)OCCCCCC [SZ124, N-docosanoyl-L-leucine hexyl ester]",anti-OVA-specific IgG1 subclass antibody production after primary immunization as compared to the OVA single administration group,[1]; Example 17,tended to increase
"CCCCCCCCCCCCCCCCCCCCCC(=O)N[C@@H](CCCNC(=N)N)C(=O)OCCCCCC.Cl [SZ121, N^2-docosanoyl-L-arginine hexyl ester hydrochloride salt]",anti-OVA-specific IgG1 subclass antibody production after primary immunization as compared to the OVA single administration group,[1]; Example 17,significantly increased
"CCCCCCCCCCCCCCCC(=O)N[C@@H](CO)C(=O)OC [SZ96, N-hexadecanoyl-L-serine methyl ester]",anti-OVA-specific IgG1 subclass antibody production after primary immunization as compared to the OVA single administration group,[1]; Example 14,tended to increase
"CCCCCCCCCCCCCCCCCCCCCC(=O)N[C@@H](CC(C)C)C(=O)N(CC)CC [SZ125, N^2-docosanoyl-N^1,N^1-diethyl-L-leucinamide]",anti-OVA-specific IgG1 subclass antibody production after primary immunization as compared to the OVA single administration group,[1]; Example 17,tended to increase
"CCCCCCCCCCCCCCCCCCCCCC(=O)N[C@@H](CCC(=O)O)C(=O)OCCCCCC [SZ135, N-docosanoyl-L-glutamic acid hexyl ester]",anti-OVA-specific IgG1 subclass antibody production after primary immunization as compared to the OVA single administration group,[1]; Example 18,tended to increase
"CCCCCCOC(=O)[C@H](CCCNC(=N)N)NC(=O)CCCCC.Cl [SZ130, N^2-hexanoyl-L-arginine hexyl ester hydrochloride salt]",anti-OVA-specific IgG1 subclass antibody production after primary immunization as compared to the OVA single administration group,[1]; Example 18,tended to increase
"CCCCCCCCCCCCCCCC(=O)N[C@@H](CCCNC(=N)N)C(=O)N(CC)CC.Cl [SZ110, N^2-hexadecanoyl-N^1,N^1-diethyl-L-arginine amide hydrochloride salt]",anti-OVA-specific IgG1 subclass antibody production after primary immunization as compared to the OVA single administration group,[1]; Example 16,tended to increase
"COC(=O)[C@H](CC(C)C)NC(C)=O [SZ83, N-acetyl-L-leucine methyl ester]",anti-OVA-specific IgG1 subclass antibody production after primary immunization,[1],show a tendency to increase
"CCCCCCCCCCCCCCCCCCCCCC(=O)N[C@@H](CCCNC(=N)N)C(=O)N(CC)CC.Cl [SZ129, N^2-docosanoyl-N^1,N^1-diethyl-L-arginine amide hydrochloride salt]",anti-OVA-specific IgG1 subclass antibody production after primary immunization as compared to the OVA single administration group,[1]; Example 18,significantly increased
"CCCCCCCCCCCCCCCC(=O)N[C@@H](CC(C)C)C(=O)OC(C)(C)C [SZ89, N-hexadecanoyl-L-leucine tert-butyl ester]",anti-OVA-specific IgG1 subclass antibody production after primary immunization,[1],show a tendency to increase
